Measured values from patent US11051515B2, “3-acyl-benzamides and their use as herbicides” (Bayer Aktiengesellschaft, priority 2017, dated 2021).

Experiments:
ECHCG [1] = experiment: Pre-emergence action against ECHCG; assay type: in vivo, Echinochloa crus-galli; settings: pre-emergence, dosage 320 g/ha, scored visually after 3 weeks vs untreated controls
From the text: (§1) Seeds of monocotyledonous and dicotyledonous weed plants and crop plants are laid out in sandy loam soil in wood-fiber pots and covered with soil. The compounds of the invention, formulated in the form of wettable powders (WP) or as emulsion concentrates (EC), are then applied to the surface of the covering soil in the form of an aqueous suspension or emulsion at a water application rate equating to […], with addition of 0.2% wetting agent. After the treatment, the pots are placed in a greenhouse and kept under good growth conditions for the trial plants. The damage to the test plants is scored visually after a test period of 3 weeks by comparison with untreated controls (herbicidal activity in percent (%): 100% activity=the plants have died, 0% activity=like control plants).

SETVI [2] = experiment: Pre-emergence action against SETVI; assay type: in vivo, Setaria viridis; settings: pre-emergence, dosage 320 g/ha, scored visually after 3 weeks vs untreated controls
From the text: as §1

ABUTH [3] = experiment: Pre-emergence action against ABUTH; assay type: in vivo, Abutilon theophrasti; settings: pre-emergence, dosage 320 g/ha, scored visually after 3 weeks vs untreated controls
From the text: as §1

AMARE [4] = experiment: Pre-emergence action against AMARE; assay type: in vivo, Amaranthus retroflexus; settings: pre-emergence, dosage 320 g/ha, scored visually after 3 weeks vs untreated controls
From the text: as §1

MATIN [5] = experiment: Pre-emergence action against MATIN; assay type: in vivo, Matricaria inodora; settings: Dosage 320 g/ha, pre-emergence
From the text: as §1

STEME [6] = experiment: Pre-emergence action against STEME; assay type: in vivo, Stellaria media; settings: Dosage 320 g/ha, pre-emergence
From the text: as §1

VIOTR [7] = experiment: Pre-emergence action against VIOTR; assay type: in vivo, Viola tricolor; settings: Dosage 320 g/ha, pre-emergence
From the text: as §1

VERPE [8] = experiment: Pre-emergence action against VERPE; assay type: in vivo, Veronica persica; settings: Dosage 320 g/ha, pre-emergence
From the text: as §1

CYPES [9] = experiment: Post-emergence action against CYPES; assay type: in vivo, Cyperus esculentus; settings: post-emergence, dosage 80 g/ha, visual assessment about 3 weeks after treatment vs untreated controls
Description: (§2) Seeds of monocotyledonous and dicotyledonous weed and crop plants are laid out in sandy loam soil in wood-fiber pots, covered with soil and cultivated in a greenhouse under good growth conditions. 2 to 3 weeks after sowing, the test plants are treated at the one-leaf stage. The compounds of the invention, formulated in the form of wettable powders (WP) or as emulsion concentrates (EC), are then sprayed onto the green parts of the plants in the form of an aqueous suspension or emulsion at a water application rate equating to […], with addition of 0.2% wetting agent. After the test plants have been left to stand in the greenhouse under optimal growth conditions for about 3 weeks, the action of the preparations is assessed visually in comparison to untreated controls (herbicidal action in percent (%): 100% activity=the plants have died, 0% activity=like control plants). […] At the same time, inventive compounds leave Gramineae crops such as barley, wheat, rye, millet/Sorghum, corn or rice virtually undamaged when applied post-emergence, even at high active ingredient dosages. In addition, some substances are also harmless to dicotyledonous crops such as soya, cotton, oilseed rape, sugar beet or potatoes. Some of the compounds according to the invention have high selectivity and are therefore suitable for controlling unwanted vegetation in agricultural crops by the post-emergence method. The data of Tables B18 to B34 below illustrate, in an exemplary manner, the […] herbicidal action of the compounds according to the invention, the herbicidal activity being stated in percent.

ECHCG [10] = experiment: Post-emergence action against ECHCG; assay type: in vivo, Echinochloa crus-galli; settings: post-emergence, dosage 80 g/ha, visual assessment about 3 weeks after treatment vs untreated controls
Description: as §2

SETVI [11] = experiment: Post-emergence action against SETVI; assay type: in vivo, Setaria viridis; settings: post-emergence, dosage 80 g/ha, visual assessment about 3 weeks after treatment vs untreated controls
Description: as §2

ABUTH [12] = experiment: Post-emergence action against ABUTH; assay type: in vivo, Abutilon theophrasti; settings: post-emergence, dosage 80 g/ha, visual assessment about 3 weeks after treatment vs untreated controls
Description: as §2

AMARE [13] = experiment: Post-emergence action against AMARE; assay type: in vivo, Amaranthus retroflexus; settings: post-emergence, dosage 80 g/ha, visual assessment about 3 weeks after treatment vs untreated controls
Description: as §2

PHBPU [14] = experiment: Post-emergence action against PHBPU; assay type: in vivo, Pharbitis purpurea; settings: post-emergence, dosage 80 g/ha
Description: as §2

STEME [15] = experiment: Post-emergence action against STEME; assay type: in vivo, Stellaria media; settings: post-emergence, dosage 80 g/ha
Description: as §2

VIOTR [16] = experiment: Post-emergence action against VIOTR; assay type: in vivo, Viola tricolor; settings: post-emergence, dosage 80 g/ha
Description: as §2

ALOMY = experiment: Pre-emergence action against ALOMY; assay type: in vivo, Alopecurus myosuroides; settings: dosage 320 g/ha; pre-emergence; scored visually after 3 weeks vs untreated controls; 100% = plants have died, 0% = like control plants
From the text: as §1

MATIN [17] = experiment: Post-emergence action against MATIN; assay type: in vivo, Matricaria inodora; settings: post-emergence, dosage 80 g/ha, visual assessment about 3 weeks after treatment vs untreated controls
Description: as §2

CYPES [18] = experiment: Pre-emergence action against CYPES; assay type: in vivo, Cyperus esculentus; settings: pre-emergence, dosage 320 g/ha, scored visually after 3 weeks vs untreated controls
From the text: as §1

POLCO = experiment: Pre-emergence action against POLCO; assay type: in vivo, Polygonum convolvulus; settings: Dosage 320 g/ha, pre-emergence
From the text: as §1

AVEFA = experiment: Pre-emergence action against AVEFA; assay type: in vivo, Avena fatua; settings: dosage 320 g/ha, scored visually after 3 weeks vs untreated controls
From the text: as §1

PHBPU [19] = experiment: Pre-emergence action against PHBPU; assay type: in vivo, Pharbitis purpurea; settings: Dosage 320 g/ha, pre-emergence
From the text: as §1

VERPE [20] = experiment: Post-emergence action against VERPE; assay type: in vivo, Veronica persica; settings: dosage 80 g/ha
Description: as §2

SMILES	Pre-emergence action against ALOMY (herbicidal activity in percent) (ALOMY)	Pre-emergence action against ECHCG (herbicidal activity) (ECHCG [1])	Pre-emergence action against AMARE (herbicidal activity) (AMARE [4])	Pre-emergence action against MATIN (MATIN [5])	Pre-emergence action against STEME (STEME [6])	Pre-emergence action against VERPE (VERPE [8])	Post-emergence action against ECHCG (herbicidal action in percent) (ECHCG [10])	Post-emergence action against ABUTH (herbicidal action in percent) (ABUTH [12])	Post-emergence action against AMARE (herbicidal action in percent) (AMARE [13])	Post-emergence action against MATIN (herbicidal action in percent) (MATIN [17])	Post-emergence action against PHBPU (PHBPU [14])	Post-emergence action against STEME (STEME [15])	Post-emergence action against VIOTR (VIOTR [16])	Pre-emergence action against CYPES (herbicidal activity) (CYPES [18])	SETVI (Table B8, pre-emergence herbicidal activity) (SETVI [2])	Pre-emergence action against ABUTH (herbicidal activity) (ABUTH [3])	Pre-emergence action against POLCO (POLCO)	Pre-emergence action against VIOTR (VIOTR [7])	further results
Cn1nnnc1NC(=O)c1ccc(C(F)(F)F)c(C(=O)C(F)(F)F)c1Cl [1-162]																			pest or weed control at 320 g/ha (ECHCG [1]; Echinochloa crus-galli, 504 h, read-out: Pre-emergence action against ECHCG (herbicidal activity)): 100%; pest or weed control at 320 g/ha (SETVI [2]; Setaria viridis, 504 h, read-out: SETVI (Table B8, pre-emergence herbicidal activity)): 100%; pest or weed control at 320 g/ha (ABUTH [3]; Abutilon theophrasti, 504 h, read-out: Pre-emergence action against ABUTH (herbicidal activity)): 100%; pest or weed control at 320 g/ha (AMARE [4]; Amaranthus retroflexus, 504 h, read-out: Pre-emergence action against AMARE (herbicidal activity)): 90%; pest or weed control at 320 g/ha (MATIN [5]; Tripleurospermum inodorum, 504 h): 80%; pest or weed control at 320 g/ha (STEME [6]; Stellaria media, 504 h): 100%; pest or weed control at 320 g/ha (VIOTR [7]; Viola tricolor, 504 h): 100%; pest or weed control at 320 g/ha (VERPE [8]; Veronica persica, 504 h): 80%; pest or weed control at 80 g/ha (CYPES [9]; Cyperus esculentus, 504 h, read-out: Post-emergence action against CYPES (herbicidal action in percent)): 80%; pest or weed control at 80 g/ha (ECHCG [10]; Echinochloa crus-galli, 504 h, read-out: Post-emergence action against ECHCG (herbicidal action in percent)): 90%; pest or weed control at 80 g/ha (SETVI [11]; Setaria viridis, 504 h, read-out: Post-emergence action against SETVI (herbicidal action in percent)): 80%; pest or weed control at 80 g/ha (ABUTH [12]; Abutilon theophrasti, 504 h, read-out: Post-emergence action against ABUTH (herbicidal action in percent)): 100%; pest or weed control at 80 g/ha (AMARE [13]; Amaranthus retroflexus, 504 h, read-out: Post-emergence action against AMARE (herbicidal action in percent)): 100%; pest or weed control at 80 g/ha (PHBPU [14]; Ipomoea purpurea, 504 h): 100%; pest or weed control at 80 g/ha (STEME [15]; Stellaria media, 504 h): 100%; pest or weed control at 80 g/ha (VIOTR [16]; Viola tricolor, 504 h): 100%
CCC(=O)c1c(C)ccc(C(=O)Nc2nnnn2CC)c1Cl [2-135]	90%	90%	100%	90%	90%	90%	90%	80%	90%	90%	90	100	90						Post-emergence action against CYPES (herbicidal action in percent) (CYPES [9]): 80%
CCn1nnnc1NC(=O)c1ccc(C(F)(F)F)c(C(=O)C(C)(C)C)c1Cl [2-143]		90%	100%	100%	100%	100%						90		90%	80%	100%	100%	100%	
CCCn1nnnc1NC(=O)c1ccc(C)c(C(C)=O)c1C [3-1]	90%	90%	100%	100%	90%		100%	80%	90%	100%	80	90	100	90%	90%	100%	90%	100%	
CCCn1nnnc1NC(=O)c1ccc(C(F)(F)F)c(C(=O)COC)c1Cl [3-144]	90%	100%	100%	100%	100%	100%	80%	90%	90%	90%	100	100	80	100%	100%	100%		100%	Pre-emergence action against AVEFA (herbicidal activity) (AVEFA): 80%; Pre-emergence action against PHBPU (PHBPU [19]): 80%; Post-emergence action against SETVI (herbicidal action in percent) (SETVI [11]): 100%; Post-emergence action against VERPE (VERPE [20]): 80
